HELM strings list units from the 5' end as sugar, base in round brackets, then linkage (d deoxyribose, r ribose, m 2'-O-methyl, p phosphodiester). Strings are as the collection lists them; they lack the last nucleoside at the 3' end of the tested compound. [moe] = 2'-O-(2-methoxyethyl) (MOE); [sp] = phosphorothioate linkage; [m5C] = 5-methylcytosine

The series concerns the target SCN2A. Briefly: mouse, dose not given. The note with it: ASO.
As to “RNA1{[moe](A)[sp].[moe](A)p.[moe](G)p.[moe](T)p.[moe](A)p.d(G)[sp].d(T)[sp].d(A)[sp].d([m5C])[sp].d([m5C])[sp].d(A)[sp].d(T)[sp].d(T)[sp].d([m5C])[sp].d([m5C])[sp].[moe]([m5C])p.[moe](A)p.[moe](T)[sp].[moe]([m5C])}$$$$ (last 3' nucleoside missing)”, the 3 h FOB score is 0 score 0-7. As to “RNA1{[moe]([m5C])[sp].[moe](A)p.[moe](T)p.[moe](G)p.[moe]([m5C])p.d(A)[sp].d(T)[sp].d(A)[sp].d(A)[sp].d(T)[sp].d([m5C])[sp].d([m5C])[sp].d([m5C])[sp].d(A)[sp].d(T)[sp].[moe](T)p.[moe](A)p.[moe](T)[sp].[moe](A)}$$$$ (last 3' nucleoside missing)”, the 3 h FOB score came to 0 score 0-7.

Take “RNA1{[moe](T)[sp].[moe]([m5C])p.[moe](T)p.[moe](G)[sp].d([m5C])[sp].d(A)[sp].d(T)[sp].d(G)[sp].d(T)[sp].d(A)[sp].d(A)[sp].d([m5C])[sp].[moe]([m5C])p.[moe](T)p.[moe](T)p.[moe](T)[sp].[moe](A)}$$$$ (last 3' nucleoside missing)”: the 3 h FOB score was found to be 2 score 0-7. “RNA1{[moe]([m5C])[sp].[moe]([m5C])p.[moe](G)p.[moe](A)p.[moe](A)p.d(T)[sp].d(T)[sp].d([m5C])[sp].d(T)[sp].d(A)[sp].d(T)[sp].d(T)[sp].d(T)[sp].d(T)[sp].d(A)[sp].[moe](T)p.[moe](A)p.[moe](A)[sp].[moe](A)}$$$$ (last 3' nucleoside missing)” gave a 3 h FOB score of 0.67 score 0-7. The substance “RNA1{[moe](A)[sp].[moe](G)p.[moe](T)p.[moe](T)p.d(T)[sp].d(T)[sp].d(T)[sp].d(T)[sp].d([m5C])[sp].d(A)[sp].d(T)[sp].d(T)[sp].d(G)[sp].d([m5C])[sp].[moe](A)p.[moe](T)p.[moe]([m5C])p.[moe]([m5C])[sp].[moe](T)}$$$$ (last 3' nucleoside missing)” had a 3 h FOB score of 3 score 0-7. As for “RNA1{[moe]([m5C])[sp].[moe](A)p.[moe](T)p.[moe](T)p.[moe](T)p.[moe]([m5C])p.d(T)[sp].d(A)[sp].d(T)[sp].d(A)[sp].d(A)[sp].d([m5C])[sp].d(T)[sp].d([m5C])[sp].d(A)[sp].d(G)[sp].[moe]([m5C])p.[moe](A)[sp].[moe](A)}$$$$ (last 3' nucleoside missing)”, the 3 h FOB score stood at 0 score 0-7. Turning to “RNA1{[moe](T)[sp].[moe](A)p.[moe](A)p.[moe](T)p.[moe]([m5C])p.[moe](A)p.d([m5C])[sp].d(T)[sp].d(T)[sp].d(T)[sp].d([m5C])[sp].d(A)[sp].d(T)[sp].d([m5C])[sp].d([m5C])[sp].d(A)[sp].[moe]([m5C])p.[moe](G)[sp].[moe](A)}$$$$ (last 3' nucleoside missing)”, the 3 h FOB score is 0 score 0-7.

“RNA1{[moe]([m5C])[sp].[moe](T)p.[moe](G)p.[moe](G)p.[moe](A)p.d([m5C])[sp].d([m5C])[sp].d(G)[sp].d(T)[sp].d([m5C])[sp].d(T)[sp].d([m5C])[sp].d(T)[sp].d(T)[sp].d(T)[sp].[moe]([m5C])p.[moe](T)p.[moe](T)[sp].[moe](A)}$$$$ (last 3' nucleoside missing)” had a 3 h FOB score of 1 score 0-7. On to “RNA1{[moe]([m5C])[sp].[moe]([m5C])p.[moe](G)p.[moe](A)p.[moe](A)p.[moe](T)p.d(T)[sp].d([m5C])[sp].d(T)[sp].d(A)[sp].d(T)[sp].d(T)[sp].d(T)[sp].d(T)[sp].d(A)[sp].d(T)[sp].[moe](A)p.[moe](A)[sp].[moe](A)}$$$$ (last 3' nucleoside missing)”, for which the 3 h FOB score was determined as 0 score 0-7. Substance “RNA1{[moe](G)[sp].[moe](A)p.[moe]([m5C])p.[moe]([m5C])p.d(G)[sp].d(T)[sp].d([m5C])[sp].d(T)[sp].d([m5C])[sp].d(T)[sp].d(T)[sp].d(T)[sp].d([m5C])[sp].d(T)[sp].[moe](T)p.[moe](A)p.[moe](T)p.[moe](T)[sp].[moe](T)}$$$$ (last 3' nucleoside missing)” came in with a 3 h FOB score of 0 score 0-7.

The values above are taken from the OligoGym collection.
